Assay type in all cases: cell-based
For assay [1], the system named is 22Rv1 cells. The assay is described as follows: Caspase-Glo 3/7 activity assay, 22Rv1 cells. The settings on record: 3 days. The method, then:
22Rv1 cells were treated with SH-I-125 (1 μM) for one, two, or three days, and caspase 3/7 activity was measured using Caspase-Glo 3/7 substrates. […] Data represent mean of three independent experiments with quadruplicate samples; bars, SEM. ***, p value <0.001 determined by ANOVA.
(§1) Caspase 3/7 activity was measured using Caspase-Glo 3/7 substrates. Data represent mean of three independent experiments with quadruplicate samples; bars, SEM. ***, p value <0.001 determined by ANOVA.
[…]; Madison, Wis.).
. […] Staurosporine was used as a positive control for apoptosis induction (FIG. 10B).

Assay [2] has as its system AR and AR-V7. The assay is described as follows: Western blot of AR and AR-V7 levels in 22Rv1 cells. The settings on record: 3 days, SH-I-125 at 1 μM. The method, then: AR levels were assessed by Western blotting. β-actin was used as a loading control.
(§2) AR and AR-V7 levels were assessed. β-actin was used as a loading control.
as §2
MG132 (5 μM), a known proteasome inhibitor, was added on Day 2. AR expression was assessed by Western blotting. β-actin was used as a loading control.
For orientation: In western blotting, separated proteins are transferred to a membrane and probed.

For assay [3], the system named is AR. The assay can be described thus: 22Rv1-ARE-luc androgen-response element luciferase reporter assay. The settings on record: range of doses, 24 hours. On the procedure: VCaP and CWR22Rv1 (referred to as 22Rv1) cells were transduced with ARE-luciferase Cignal Lenti Pathway Reporter (Qiagen; Valencia, Calif.) and cultured as described above in the presence of 1 μg/mL puromycin. Following antibiotic selection, cells stably expressing ARE-luciferase were isolated, cloned and cultured to generate a stable ARE-reporter cell lines.

For assay [4], the system named is VCaP-MDVR cells. The assay is described as follows: Cell viability (MTT), VCaP-MDVR cells. The settings on record: MDV3100, ARN-509 10 μM, SH-I-125 range, 3 days.
Procedure: (§6) Cell viability was measured using the MTT assay.
The subject of assay [5] is VCaP cells. The assay is described as follows: Caspase-Glo 3/7 activity assay, VCaP cells. The settings on record: 3 days. On the procedure:
as §1

Assay [6] deals with 22Rv1-MDVR cells. The assay is described as follows: Cell viability (MTT), 22Rv1-MDVR cells. The settings on record: MDV3100, ARN-509 10 μM, SH-I-125 range, 3 days.
Procedure: as §6
Assay [7] relates to AR. The assay can be described thus: Immunofluorescence staining of AR in 22Rv1-MDVR cells. The settings on record: MDV3100 10 μM, ARN509 10 μM or SH-I-125 1 μM, 24 hours. On the procedure:
[…]. AR and AR-V7 expression levels were assessed.
(§3) Immunofluorescence staining was performed as described in Amin et al., Mol. Cancer Ther., 13:341-52 (2014).

The test system of assay [8] is AR. The assay can be described thus: VCaP-MDVR-ARE-luc luciferase reporter assay. The settings on record: VCaP-MDVR-ARE-luc cells, range of doses, 24 hours. On the procedure:
(§4) […]. Luciferase activity was measured and plotted as a percentage of control. Data represent the mean of three independent experiments with quadruplicate samples; bars, SEM. ***, p value <0.001 determined by ANOVA.
(§5) VCaP-MDVR and 22Rv1-MDVR stably expressing ARE-luciferase construct (VCaP-MDVR-ARE-luc and 22Rv1-MDVR-ARE-luc) were generated as described above in the Materials and Methods section. […].
Background: Reporter assays use an easily measured gene product as a stand-in for the process of interest.

Assay [9] deals with AR. The assay is described as follows: 22Rv1-MDVR-ARE-luc luciferase reporter assay. The settings on record: 22Rv1-MDVR-ARE-luc cells, range of doses, 24 hours. On the procedure: as §4, §5
Assay [10] deals with 22Rv1 cells. The assay can be described thus: MTT cell viability assay, 22Rv1 cells. The settings on record: 3 days. On the procedure:
Cells were treated in the manner indicated below for the specified period of time. MTT assay was performed as described in Amin et al., Mol. Cancer Ther., 13:341-52 (2014).
To determine the effects of SH-I-125 on prostate cancer cell growth, 22Rv1 cells were treated with SH-I-125 and cell viability was measured after a period of 3 days. […]. In comparison, non-tumorigenic primary prostate epithelial cells (PrEC) retained 80% viability in the presence of a similar range of doses of SH-I-125, showing that tumorigenic cells are more susceptible to the growth inhibitory properties of SH-I-125 compared to non-tumorigenic cells (FIG. 8B). […] Staurosporine was used as a positive control for cell death induction in live and dead assays (FIG. 9C).

The test system of assay [11] is AR. The assay can be described thus: Immunofluorescence staining of AR and PSA in VCaP-MDVR cells. The settings on record: DHT 1 nM, MDV3100 10 μM or SH-I-125 1 μM, 24 hours. The method, then: AR and PSA expression levels were assessed.
as §3

In the case of `CNC(=O)c1ccc(N2C(=S)N(c3cnc(C#N)c(C(F)(F)F)c3)C(=O)C23CCC3)cc1F` [ARN-509], the “caspase 3/7 activity” value in assay [1] and in assay [5] was “did not have a similar effect” throughout. The “cellular AR and AR-V7 levels” value in [2] was “no effect”. The “inhibitory effect on ARE-luciferase activity (plateau)” value in [3] is listed as 50%. The “cell growth / viability” value in assay [4] and in assay [6] was “continued proliferation” each time. Moreover, the AR nuclear localization entry in assay [7] is “unaffected”. The “reduction of luciferase activity” value in assay [8] was found to be 50%. The “luciferase activity (AR activity)” value in assay [9] is listed as “unchanged from control”. In assay [10], the “prevention of growth compared with SH-I-125” value is on record as “significantly less effective”.

With `CNC(=O)c1ccc(N2C(=S)N(c3ccc(C#N)c(C(F)(F)F)c3)C(=O)C2(C)C)cc1F` [MDV3100], the “caspase 3/7 activity” value in [1] and in [5] was “did not have a similar effect” throughout. Besides, in assay [2], the “cellular AR and AR-V7 levels” value is recorded as “no effect”. Moreover, the “cell growth / viability” value in assay [4] and in assay [6] was “continued proliferation” throughout. For the same molecule, the “AR expression / nuclear localization” value in [11] is on record as “AR expression was not attenuated”. Besides, the PSA expression entry in assay [11] is “continued to inhibit PSA expression”. The AR nuclear localization result in [7] is “unaffected”. Also, in [8], the “reduction of luciferase activity” value came out at 50%. Moreover, the “luciferase activity (AR activity)” value in assay [9] is given as “unchanged from control”. Further, the “prevention of growth compared with SH-I-125” value in [10] is given as “significantly less effective”.

The values are drawn from patent US10487056B2, “Small molecule androgen receptor inhibitors and methods of use thereof” (GEORGETOWN UNIVERSITY, priority 2015, dated 2019).
